Source: patent US5872210A (priority 1995, dated 1999)
Where a SMILES comes first, the peptide text is derived from it. Where no end group is shown, it is not given here.

These compounds were tested against T1, HIV-1 protease (Human immunodeficiency virus type 1 group M subtype B, UniProt P04585) (assay: HIV-1 protease hydrolysis of synthetic cleavage-site peptide substrates (RP-HPLC, Lineweaver-Burk)). Settings: Gag cleavage sites.
Format: biochemical
Experimental: […] Reactions were terminated with 190 μl of a solution of 8M guanidine hydrochloride and 1% trifluroacetic acid (TFA) and subjected to reverse-phase high performance liquid chromotography ("RP-HPLC") on a C18 column. The substrate and cleavage products were separated with a linear gradient of 0 to 50% acetonitrile in water containing 0.05% TFA. The identity of the cleavage products was confirmed by electrospray mass spectroscopy. Peak areas were integrated using the Turbochrom 4 software (Perkin Elmer, San Jose, Calif.). Lineweaver-Burk analysis was used to determine kcat and Km.

Compound | kcat /Km
ATIM*MQRG | 74000 M⁻¹ s⁻¹
PGNF*LQSR | 600 M⁻¹ s⁻¹
RQAN*FLGK | 1600 M⁻¹ s⁻¹
SQNY*PIVQ | 45000 M⁻¹ s⁻¹
ARVL*AEAM | 90000 M⁻¹ s⁻¹

Same assay, conditions: Pol cleavage sites

Compound | kcat /Km
SFNF*PQIT | 7000 M⁻¹ s⁻¹
RKIL*FLDG | 200000 M⁻¹ s⁻¹
DLAFLQGK [DLAF*LQGK, Asp-Leu-Ala-Phe-Leu-Gln-Gly-Lys] | 1200 M⁻¹ s⁻¹
TLNF*PISP | 24000 M⁻¹ s⁻¹
AETF*YVDG | 10000 M⁻¹ s⁻¹
ERQANFLRED [ERQAN*FLRED, Glu-Arg-Gln-Ala-Asn-Phe-Leu-Arg-Glu-Asp] | 0.019 M⁻¹ s⁻¹

What follows are compounds tested against T1, HIV-1 protease (assay: biochemical). Settings: not given.
Experimental: HIV-1 protease was obtained and its active site concentration was determined at 25° C. Purified enzyme was stored as a 5-8 μM stock solution in 50 mM NaOAc (pH 5.0), 1 mM DTT, 1 mM EDTA, 0.05% reduced Triton X-100 at -80° C. Porcine pepsin was prepared as 1-2 mg/ml in 50 mM formic acid (pH 3.0). The peptide concentrations were adjusted for their protein content.
HIV-1 protease activity was measured at 25° C. using substrate I (Lys-Ala-Arg-Val-Nle-Phe (NO2) -Glu-Ala-Nle-NH2 wherein Nle is norleucine and Phe (NO2) is 4-nitrophenylalamine). In a typical assay, 2.5 μl of enzyme was added to 97.5 μl of buffer and 2.5 mM DTT in the presence or absence of varying concentrations of inhibitor. The reaction was initiated by the addition of 10 μl of a 4 mM solution of substrate I in water and monitored by following the decrease in absorption at […] in a 100 μl spectrophotometric cell. Pepsin was assayed using substrate II (Phe-Gly-His-Phe(NO2)-Phe-Ala-PheOCH3). […] Concentrations of substrate solutions were determined spectrophotometrically at […].
The enzyme was assayed in the presence of the inhibitor in 50 mM sodium formate at pH 4.25 and 2.5 mM DTT. […] Peptides 12a and 12b were assayed at pH 4.4 and contained 0.083% and 0.02% DMSO, respectively.

Compound | Ki
N[C@@H](CC(=O)O)C(=O)N[C@@H](CC(=O)O)C(=O)O [Peptide 13, Asp--Asp] (H-Asp-Asp-OH) | 970 ± 140 µM
N[C@@H](CCC(=O)O)C(=O)O [Peptide 16, Glutamic acid, reference compound] | > 50000 µM
N[C@@H](CC(=O)O)C(=O)O [Peptide 17, Aspartic acid, reference compound] | > 50000 µM
FLREDLAF [Peptide 1, Phe--Leu--Arg--Glu--Asp--Leu--Ala--Phe] | 98 ± 10 µM

Same assay, conditions: 50 mM sodium formate pH 4.25, 2.5 mM DTT, substrate I 390 μM, 25° C.; peptides 1, 2, 4 from apparent Km vs [I], others from 1/V vs [I]; read-out: Ki

Compound | Ki
Glu--Lys--Phe (EKF) [Peptide 11] | 2010 ± 360 µM

Same assay, conditions: Ki, 50 mM sodium formate pH 4.25, 2.5 mM DTT, substrate I 390 μM, 25° C.; peptides 1, 2, 4 from apparent Km vs [I], others from 1/V vs [I]

Compound | Ki
N[C@@H](CCC(=O)O)C(=O)N[C@@H](CC(=O)O)C(=O)N[C@@H](Cc1ccccc1)C(=O)O [Peptide 12, Glu--Asp--Phe] (H-Glu-Asp-Phe-OH) | 25 ± 3 µM
NC(=O)CC[C@H](NC(=O)[C@@H](N)CC(=O)O)C(=O)O [Peptide 15, Asp--Gln] (H-Asp-Gln-OH) | > 1000 µM
CC(C)C[C@H](NC(=O)[C@H](CC(N)=O)NC(=O)[C@@H](N)CCC(=O)O)C(=O)O [Peptide 10, Glu--Asn--Leu] (H-Glu-Asn-Leu-OH) | 3070 ± 210 µM
CC(C)C[C@H](NC(=O)[C@@H](N)CC(=O)O)C(=O)N[C@@H](C)C(=O)N[C@@H](Cc1ccccc1)C(=O)O [Peptide 6, Asp--Leu--Ala--Phe] (H-DLAF-OH) | 270 ± 25 µM
CC(C)C[C@H](NC(=O)[C@H](CC(=O)O)NC(=O)[C@@H](N)CCC(=O)O)C(=O)N[C@@H](C)C(=O)O [Peptide 3, Glu--Asp--Leu--Ala] (H-EDLA-OH) | 160 ± 20 µM
N=C(N)NCCC[C@H](N)C(=O)N[C@@H](CCC(=O)O)C(=O)N[C@@H](CC(=O)O)C(=O)O [Peptide 5, Arg--Glu--Asp] (H-Arg-Glu-Asp-OH) | 3360 ± 400 µM
CC(C)C[C@H](NC(=O)[C@H](CCC(=O)O)NC(=O)[C@@H](N)CC(=O)O)C(=O)O [Peptide 7, Asp--Glu--Leu] (H-Asp-Glu-Leu-OH) | 230 ± 20 µM
CC(C)C[C@H](NC(=O)[C@H](CCC(=O)O)NC(=O)[C@@H](N)CCC(=O)O)C(=O)O [Peptide 8, Glu--Glu--Leu] (H-Glu-Glu-Leu-OH) | 310 ± 25 µM
FLRQNLAF [Peptide 18, Phe--Leu--Arg--Gln--Asn--Leu--Ala--Phe] | 2000 µM
N[C@@H](CC(=O)O)C(=O)N[C@@H](CCC(=O)O)C(=O)O [Peptide 14, Asp--Glu] (H-Asp-Glu-OH) | 5400 ± 380 µM
CC(C)C[C@H](NC(=O)[C@H](CC(=O)O)NC(=O)[C@@H](N)CC(=O)O)C(=O)O [Peptide 9, Asp--Asp--Leu] (H-Asp-Asp-Leu-OH) | 140 ± 6 µM
GEDLAF [Peptide 2, Gly--Glu--Asp--Leu--Ala--Phe] | 64 ± 13 µM

Same assay, conditions: Ki, NaCl 0 M; 50 mM sodium formate pH 4.25, 2.5 mM DTT; 1/V vs [I]

Compound | Ki
N[C@@H](CCC(=O)O)C(=O)N[C@@H](CC(=O)O)C(=O)N[C@@H](Cc1ccccc1)C(=O)O [Peptide 12, Glu--Asp--Phe] (H-Glu-Asp-Phe-OH) | 15 ± 2 µM
CC(C)C[C@H](NC(=O)[C@@H](N)CC(=O)O)C(=O)N[C@@H](C)C(=O)N[C@@H](Cc1ccccc1)C(=O)O [Peptide 6, Asp--Leu--Ala--Phe] (H-DLAF-OH) | 270 ± 25 µM

Same assay, conditions: Ki, NaCl 1 M; 50 mM sodium formate pH 4.25, 2.5 mM DTT; 1/V vs [I]

Compound | Ki
N[C@@H](CCC(=O)O)C(=O)N[C@@H](CC(=O)O)C(=O)N[C@@H](Cc1ccccc1)C(=O)O [Peptide 12, Glu--Asp--Phe] (H-Glu-Asp-Phe-OH) | 410 ± 25 µM
CC(C)C[C@H](NC(=O)[C@@H](N)CC(=O)O)C(=O)N[C@@H](C)C(=O)N[C@@H](Cc1ccccc1)C(=O)O [Peptide 6, Asp--Leu--Ala--Phe] (H-DLAF-OH) | 3260 ± 390 µM

Same assay, conditions: Ki, pH 4.4; 0.083% (12a) and 0.02% (12b) DMSO; 1/V vs [I]

Compound | Ki
N[C@@H](CC(=O)O)C(=O)N[C@@H](CC(=O)O)C(=O)N[C@@H](Cc1ccccc1)C(=O)O [Peptide 12a, Asp--Asp--Phe] (H-Asp-Asp-Phe-OH) | 43 ± 7 µM
N[C@@H](Cc1ccccc1)C(=O)N[C@@H](CC(=O)O)C(=O)N[C@@H](CC(=O)O)C(=O)N[C@@H](Cc1ccccc1)C(=O)O [Peptide 12b, Phe--Asp--Asp--Phe] (H-FDDF-OH) | 55 ± 14 µM

Each compound was assayed on mature HIV-1 protease (assay: 50 mM sodium acetate, pH 5.0 or 100 mM sodium phosphate at pH 5.5 containing 1 mM DTT, 1 mM EDTA, 1M NaCl). Settings: 37° C.

Compound | cleaved bond
DLAFLQGK | Phe-Leu
ERQANFLRED | Asn-Phe

What follows are compounds tested against T1, HIV-1 protease (assay: biochemical). Settings: 1M NaCl, 50 mM sodium formate, pH 4.0, 2.5 mM DTT, 25° C.

Compound | Ki
N[C@@H](CCC(=O)O)C(=O)N[C@@H](CC(=O)O)C(=O)N[C@@H](Cc1ccccc1)C(=O)O [Peptide 12, Glu--Asp--Phe] (H-Glu-Asp-Phe-OH) | 410 ± 25 µM
CC(C)C[C@H](NC(=O)[C@@H](N)CC(=O)O)C(=O)N[C@@H](C)C(=O)N[C@@H](Cc1ccccc1)C(=O)O [Peptide 6, Asp--Leu--Ala--Phe] (H-DLAF-OH) | 3260 ± 390 µM
